Earlier results on one molecule are cited in patent US20230321114A1, “METHODS OF TREATING AGE-RELATED COGNITIVE DECLINE” (Woolsey Pharmaceuticals, Inc., priority 2020, published 2023).

Molecules are shown by their SMILES.

For series [1], the system named is memory in aging rats. The settings on record: eighteen-month old rats, 0.1875 or 0.3750 mg per day, single daily injection.
The conditions of series [2]: in vivo, metabolite.

For the molecule `O=S(=O)(c1cccc2c(O)nccc12)N1CCCNCC1` [hydroxyfasudil], in series [1] (Morris Water Maze), the spatial reference memory result is “not in spatial reference memory”. In series [1] (Morris Water Maze (radial maze)), the working memory entry is reported as “improvements in working memory”. Also, the half-life entry in series [2] is recorded as “about 8 hours”.
